Source: US9326985B2, “Heteroaryl pyridone and aza-pyridone amide compounds” (Genentech, Inc., priority 2013, dated 2016)

Assays:
[1] = test system: CD69 by B lymphocytes in human whole blood activated with goat F(ab')2 anti-human IgM; assay: CD69 Whole Blood Assay (CD69 Hu Blood FACS); type: cell-based; conditions: CD69 positive of CD20 positive cells
Experimental: CD69 is a type II C-type lectin involved in lymphocyte migration and cytokine secretion.
Human blood is obtained from healthy volunteers, with the following restrictions: 1 week drug-free, non-smokers. Blood (approximately 20 mls to test 8 compounds) is collected by venipuncture into Vacutainer® (Becton, Dickinson and Co.) tubes with sodium heparin.
Solutions of Formula I compounds at 10 mM in DMSO are diluted 1:10 in 100% DMSO, then are diluted by three-fold serial dilutions in 100% DMSO for a ten point dose-response curve. The compounds are further diluted 1:10 in PBS and then an aliquot of 5.5 μl of each compound is added in duplicate to a 2 ml 96-well plate; 5.5 μl of 10% DMSO in PBS is added as control and no-stimulus wells. Human whole blood—HWB (100 μl) is added to each well. After mixing the plates are incubated at 37° C., 5% CO2, 100% humidity for 30 minutes. Goat F(ab′)2 anti-human IgM (10 μl of a 500 μg/ml solution, 50 μg/ml final) is added to each well (except the no-stimulus wells) with mixing and the plates are incubated for an additional 20 hours. At the end of the 20 hour incubation, samples are incubated with fluorescent labeled antibodies for 30 minutes, at 37° C., 5% CO2, 100% humidity. Include induced control, unstained and single stains for compensation adjustments and initial voltage settings. Samples are then lysed with PharM Lyse™ (BD Biosciences Pharmingen) according to the manufacturer's instructions. Samples are then transferred to a 96 well plate suitable to be run on the BD Biosciences HTS 96 well system on the LSRII machine. Data acquired and Mean Fluorescence Intensity values were obtained using BD Biosciences DIVA Software. Results are initially analyzed by FACS analysis software (Flow Jo).

[2] = biological target: T1, full length human wildtype Btk (Homo sapiens, UniProt Q06187); assay: Biochemical Btk Assay (BTK LC3K)
T1 construct: V5 (C); 6xHis (C); made in house; host or cells: Sf9 insect cells (baculovirus, pFastBac)
T1 sequence (Q06187 whole entry): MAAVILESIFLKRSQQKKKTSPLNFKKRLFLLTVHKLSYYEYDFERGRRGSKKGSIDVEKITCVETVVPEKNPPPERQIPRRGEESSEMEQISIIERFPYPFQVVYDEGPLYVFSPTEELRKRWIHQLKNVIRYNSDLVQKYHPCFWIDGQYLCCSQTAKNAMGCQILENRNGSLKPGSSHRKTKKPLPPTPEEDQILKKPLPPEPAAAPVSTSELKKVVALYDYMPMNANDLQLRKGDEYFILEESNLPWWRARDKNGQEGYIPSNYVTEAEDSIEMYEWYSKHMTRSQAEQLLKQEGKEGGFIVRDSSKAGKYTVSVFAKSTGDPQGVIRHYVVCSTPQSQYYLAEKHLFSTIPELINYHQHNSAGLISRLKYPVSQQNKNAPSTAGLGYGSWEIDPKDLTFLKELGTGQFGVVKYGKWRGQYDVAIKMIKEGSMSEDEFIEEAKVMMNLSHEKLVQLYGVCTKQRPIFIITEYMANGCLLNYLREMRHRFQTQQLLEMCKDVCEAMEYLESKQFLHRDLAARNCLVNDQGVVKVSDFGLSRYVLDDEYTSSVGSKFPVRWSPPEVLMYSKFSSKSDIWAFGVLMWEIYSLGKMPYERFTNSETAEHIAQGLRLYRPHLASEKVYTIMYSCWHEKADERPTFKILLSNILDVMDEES
Experimental: A generalized procedure for a standard biochemical Btk, Kinase Assay that can be used to test Formula I compounds is as follows. A master mix minus Btk enzyme is prepared containing 1× Cell Signaling kinase buffer (25 mM Tris-HCl, pH 7.5, 5 mM beta-glycerophosphate, 2 mM dithiothreitol, 0.1 mM Na3VO4, 10 mM MgCl2), 0.5 μM Promega PTK Biotinylated peptide substrate 2, and 0.01% BSA. A master mix plus Btk enzyme is prepared containing 1× Cell Signaling kinase buffer, 0.5 μM (micromolar) PTK Biotinylated peptide substrate 2, 0.01% BSA, and 100 ng/well (0.06 mU/well) Btk enzyme. Btk enzyme is prepared as follows: full length human wildtype Btk (accession number NM-000061) with a C-terminal V5 and 6×His tag was subcloned into pFastBac® vector (Invitrogen/Life Technologies) for making baculovirus carrying this epitope-tagged Btk. […] Passage 3 virus is used to infect Sf9 cells to overexpress the recombinant Btk protein. The Btk protein is then purified to homogeneity using Ni-NTA column. […] A solution of 200 μM ATP is prepared in water and adjusted to pH 7.4 with 1N NaOH. A quantity of 1.25 μL (microliter) of compounds in 5% DMSO is transferred to a 96-well ½ area Costar polystyrene plate. Compounds are tested singly and with an 11-point dose-responsive curve (starting concentration is 10 μM; 1:2 dilution). A quantity of 18.75 μL of master mix minus enzyme (as a negative control) and master mix plus enzyme is transferred to appropriate wells in 96-well ½ area costar polystyrene plate. 5 μL of 200 μM ATP is added to that mixture in the 96-well ½ area Costar polystyrene plate for final ATP concentration of 40 μM. The reaction is allowed to incubate for 1 hour at room temperature. The reaction is stopped with Perkin Elmer 1× detection buffer containing 30 mM EDTA, 20 nM SA-APC, and 1 nM PT66 Ab. […] IC50 values are subsequently calculated. Alternatively, the Lanthascreen assay can be used to evaluate Btk activity through quantification of its phosphorylated peptide product. The FRET (Fluorescence Resonance Energy Transfer) that occurs between the fluorescein on the peptide product and the terbium on the detection antibody decreases with the addition of inhibitors of Btk that reduce the phosphorylation of the peptide. In a final reaction volume of 25 uL, Btk (h) (0.1 ng/25 ul reaction) is incubated with 50 mM Hepes pH 7.5, 10 mM MgCl2, 2 mM MnCl2, 2 mM DTT, 0.2 mM NaVO4, 0.01% BSA, and 0.4 uM fluorescein poly-GAT. […] After incubation for 60 minutes at room temperature, the reaction is stopped by the addition of a final concentration of 2 nM Tb-PY20 detection antibody in 60 mM EDTA for 30 minutes at room temperature.

[3] = Lymphocyte, Table 2, anti-IgM stimulation
[4] = Lymphocyte, Table 1, anti-IgM stimulation

Row | SMILES | IC50 [1, 3] | Ki ([2]; Table 2) | further results
1 | Cn1cc(-c2ccnc(N3CCc4c(cc5n4CC(C)(C)C5)C3=O)c2CO)cc(NC(=O)C2CC2)c1=O [Compound 137, N-[5-[2-(7,7-dimethyl-4-oxo-1,2,6,8-tetrahydropyrido[3,4-b]pyrrolizin-3-yl)-3-(hydroxymethyl)-4-pyridyl]-1-methyl-2-oxo-3-pyridyl]cyclopropanecarboxamide] | 616 nM | 28.5 nM | –
2 | CCOC1C[C@H]1C(=O)Nc1cc(-c2ccnc(N3CCn4c(cc5c4CC(C)(C)C5)C3=O)c2CO)cn(C)c1=O (single isomer, unassigned) [Compound 143] | 2200 nM | 53 nM | –
3 | Cc1cc(C(=O)Nc2cc(-c3ccnc(N4CCn5c(cc6c5CC(C)(C)C6)C4=O)c3CO)cn(C)c2=O)n[nH]1 [Compound 111, N-[5-[2-(7,7-dimethyl-4-oxo-1,2,6,8-tetrahydrocyclopenta[3,4]pyrrolo[3,5-b]pyrazin-3-yl)-3-(hydroxymethyl)-4-pyridyl]-1-methyl-2-oxo-3-pyridyl]-5-methyl-1H-pyrazole-3-carboxamide] | – | – | IC50 [1, 4]: > 5400 nM; Ki ([2]; Table 1): > 500 nM
4 | Cn1cc(-c2ccnc(N3CCn4c(cc5c4CC(C)(C)C5)C3=O)c2CO)cc(NC(=O)c2ccc(N3CCCC3)nc2)c1=O [Compound 113, N-[5-[2-(7,7-dimethyl-4-oxo-1,2,6,8-tetrahydrocyclopenta[3,4]pyrrolo[3,5-b]pyrazin-3-yl)-3-(hydroxymethyl)-4-pyridyl]-1-methyl-2-oxo-3-pyridyl]-6-pyrrolidin-1-yl-pyridine-3-carboxamide] | – | – | IC50 [1, 4]: > 3500 nM; Ki ([2]; Table 1): 77 nM
5 | Cn1cc(-c2ccnc(N3CCn4c(cc5c4CC(C)(C)C5)C3=O)c2CO)cc(NC(=O)[C@@H]2CC23CCC3)c1=O (single isomer, unassigned) [Compound 146] | 5200 nM | 17 nM | –
6 | Cn1cc(-c2ccnc(N3CCc4cc(OC(F)F)cc(F)c4C3=O)c2CO)cc(NC(=O)C2CC2)c1=O [Compound 144, N-[5-[2-[6-(difluoromethoxy)-8-fluoro-1-oxo-3,4-dihydroisoquinolin-2-yl]-3-(hydroxymethyl)-4-pyridyl]-1-methyl-2-oxo-3-pyridyl]cyclopropanecarboxamide] | > 5400 nM | 234 nM | –
7 | Cn1cc(-c2ccnc(N3CCn4c(cc5c4CC(C)(C)C5)C3=O)c2CO)cc(NC(=O)[C@@H]2CC23CC3)c1=O (single isomer, unassigned) [Compound 140] | 1400 nM | 5.2 nM | –
8 | Cn1cc(-c2cc(F)cc(N3CCc4c(cc5n4CC(C)(C)C5)C3=O)c2CO)cc(NC(=O)[C@@H]2C[C@@H]2F)c1=O [Compound 168] | 157 nM | 1 nM | –
9 | Cc1cc(C(=O)Nc2cc(-c3ccnc(N4CCn5c(cc6c5CC(C)(C)C6)C4=O)c3CO)cn(C)c2=O)nn1C [Compound 112, N-[5-[2-(7,7-dimethyl-4-oxo-1,2,6,8-tetrahydrocyclopenta[3,4]pyrrolo[3,5-b]pyrazin-3-yl)-3-(hydroxymethyl)-4-pyridyl]-1-methyl-2-oxo-3-pyridyl]-1,5-dimethyl-pyrazole-3-carboxamide] | – | – | IC50 [1, 4]: > 5800 nM; Ki ([2]; Table 1): > 500 nM
10 | CN1CC[C@@]2(C[C@H]2C(=O)Nc2cc(-c3ccnc(-n4ncc5cc(C(C)(C)C)cc(F)c5c4=O)c3CO)cn(C)c2=O)C1 (single isomer, unassigned) [Compound 175] | > 4800 nM | 7.6 nM | –
11 | CCCC(=O)Nc1cc(-c2ccnc(N3CCn4c(cc5c4CC(C)(C)C5)C3=O)c2CO)cn(C)c1=O [Compound 163, N-[5-[2-(7,7-dimethyl-4-oxo-1,2,6,8-tetrahydrocyclopenta[3,4]pyrrolo[3,5-b]pyrazin-3-yl)-3-(hydroxymethyl)-4-pyridyl]-1-methyl-2-oxo-3-pyridyl]butanamide] | 1900 nM | – | –
12 | Cn1cc(-c2ccnc(N3CCn4c(cc5c4CC(C)(C)C5)C3=O)c2CO)cc(NC(=O)C2CC2F)c1=O (stereo not shown) [Compound 118, N-[5-[2-(7,7-dimethyl-4-oxo-1,2,6,8-tetrahydrocyclopenta[3,4]pyrrolo[3,5-b]pyrazin-3-yl)-3-(hydroxymethyl)-4-pyridyl]-1-methyl-2-oxo-3-pyridyl]-2-fluoro-cyclopropanecarboxamide] | – | – | IC50 ([1]; Table 1, anti-IgM stimulation): 219 nM
13 | Cn1cc(-c2ccnc(N3CCn4c(cc5c4CC(C)(C)C5)C3=O)c2CO)cc(NC(=O)C2(F)CC2)c1=O [Compound 134, N-[5-[2-(7,7-dimethyl-4-oxo-1,2,6,8-tetrahydrocyclopenta[3,4]pyrrolo[3,5-b]pyrazin-3-yl)-3-(hydroxymethyl)-4-pyridyl]-1-methyl-2-oxo-3-pyridyl]-1-fluoro-cyclopropanecarboxamide] | 4200 nM | – | –
14 | Cn1cc(-c2ccnc(N3CCc4c(cc5n4CCCC5)C3=O)c2CO)cc(NC(=O)C2CC2)c1=O [Compound 133, N-[5-[3-(hydroxymethyl)-2-(1-oxo-3,4,6,7,8,9-hexahydropyrido[3,4-b]indolizin-2-yl)-4-pyridyl]-1-methyl-2-oxo-3-pyridyl]cyclopropanecarboxamide] | > 4300 nM | – | –
15 | Cn1cc(-c2ccnc(N3CCn4c(cc5c4CC(C)(C)C5)C3=O)c2CO)cc(NC(=O)C2(O)CC2)c1=O [Compound 135, N-[5-[2-(7,7-dimethyl-4-oxo-1,2,6,8-tetrahydrocyclopenta[3,4]pyrrolo[3,5-b]pyrazin-3-yl)-3-(hydroxymethyl)-4-pyridyl]-1-methyl-2-oxo-3-pyridyl]-1-hydroxy-cyclopropanecarboxamide] | > 3400 nM | – | –
16 | Cn1cc(-c2ccnc(N3CCn4c(cc5c4CC(C)(C)C5)C3=O)c2CO)cc(NC(=O)CC2CC2)c1=O [Compound 103, 2-cyclopropyl-N-[5-[2-(7,7-dimethyl-4-oxo-1,2,6,8-tetrahydrocyclopenta[3,4]pyrrolo[3,5-b]pyrazin-3-yl)-3-(hydroxymethyl)-4-pyridyl]-1-methyl-2-oxo-3-pyridyl]acetamide] | – | – | IC50 [1, 4]: 4900 nM
17 | CCC(=O)Nc1cc(-c2ccnc(N3CCn4c(cc5c4CC(C)(C)C5)C3=O)c2CO)cn(C)c1=O [Compound 107, N-[5-[2-(7,7-dimethyl-4-oxo-1,2,6,8-tetrahydrocyclopenta[3,4]pyrrolo[3,5-b]pyrazin-3-yl)-3-(hydroxymethyl)-4-pyridyl]-1-methyl-2-oxo-3-pyridyl]propanamide] | – | – | IC50 [1, 4]: 1600 nM
18 | Cn1cc(-c2ccnc(-n3ncc4cc(C(C)(C)C)cc(F)c4c3=O)c2CO)cc(NC(=O)C2CC2)c1=O [Compound 125, N-[5-[2-(6-tert-butyl-8-fluoro-1-oxo-phthalazin-2-yl)-3-(hydroxymethyl)-4-pyridyl]-1-methyl-2-oxo-3-pyridyl]cyclopropanecarboxamide] | – | – | IC50 ([1]; Homo sapiens, Lymphocyte, Table 1, anti-IgM stimulation): 62.5 nM
